In patent publication US4131681A, “Antiallergic method” (Fujisawa Pharmaceutical Co., Ltd., priority 1977, dated 1978):
Where a name gives a salt, the structure may show the parent alone.

Legend:
Acute toxicity in rat = details: in vivo, 7 days
Experimental: (§1) (6) Acute toxicity in mouse and rat
(§2) Each ten male and female ICR-JCL strain mice and Sprague-Dawley-JCL strain rats were used for each dose.
(§3) Each test compound was given to animals in a form of suspension in 0.5% methyl cellose intraperitoneally, subcutaneously and orally. After administration, the incidence of the death was recorded for successive seven days. LD50 values were calculated by the method of Litchfield-Wilcoxon method.

[1] = tested on: passive cutaneous anaphylaxis (P.C.A.) reaction; test: Antagonism to passive cutaneous anaphylaxis (P.C.A.) in guinea-pig; type: in vivo, guinea-pig (male Hartley); details: for ED50: Cavia porcellus
Experimental: (b) Guinea-pig antiserum against egg albumin
Five mg of egg albumin emulsified in 0.5 ml of physiological saline and 0.5 ml of Freund's incomplete adjuvant was used as the antigen.
The amulsion was given subcutaneously in a single dose of 1 ml divided equally (0.25 ml) to the four foot pads of male Hartley strain guinea pigs, each weighing 250 to 300 g. Starting two weeks after dosing with the aforementioned emulsion, 0.1% egg albumin emulsified in physiological saline was given subcutaneously in equally divided (0.1 ml) doses of 0.4 ml once a week for 4 weeks to four sites on the backs of the test animals. Blood samples were collected from the carotid artery one week after the last injection, and centrifuged at 3000 r.p.m. at room temperature for 15 minutes. The antisera thus obtained were stored at -20° C.
(3) Antagonism to passive cutaneous anaphylaxis (P.C.A) in guinea-pig
Ten male Hartley strain guinea-pigs, weighing 300-350 g, were used for each dose. The animals were sensitized with 0.1 ml of the guinea-pig antiserum against egg albumin injected intracutaneously on the depilated backs of the animals. Four hours after injection of the antiserum, 1 ml of mixture of egg albumin […] and Evan's blue […] in physiological saline was injected intravenously. Thirty minutes after the injection of the antigen, the animals were sacrificed and the skin was removed. Each test compound was given orally 2 hours and intravenously 5 minutes before administration of the antigen. Each sensitized area of the skin was treated substantially in the same manner as that of the above mentioned test (2) to calculate ED50 value.

[2] = tested on: Bradykinin-induced bronchoconstruction; test: Antagonism to Bradykinin-induced bronchoconstruction in guinea-pigs; type: in vivo, guinea-pig (male Hartley); details: for Inhibitory effect of Bradykinin-induced bronchoconstruction in guinea-pig: 30 seconds before Bradykinin; for ED50: Cavia porcellus, iv, 30 seconds before Bradykinin 16 mg/kg i.v., Litchfield-Wilcoxon
Experimental: (5) Antagonism to Bradykinin-induced bronchoconstruction in guinea-pigs
Ten male Hartley strain guinea-pigs were used for each dose. The animals were immobilized with an intraperitoneal dose of 100 mg/kg of gallamine. The trachea was cannulated and the lungs were dilated with air by a respiration pump at the rate of 3 ml/time and 60.2 times/minute. Bradykinin 16 mg/kg was given intravenously and bronchoconstruction induced thereby was measured by Tanbule Strain gauge according to Konzett-Rossler method. The inhibitory effect against bronchoconstruction was determined in comparison with the control group and the treated group, and the ED50 value was measured according to Litchfield-Wilcoxon method. Each test compound was given intravenously 30 seconds before administration of the Bradykinin.

[3] = tested on: passive cutaneous anaphylaxis (P.C.A.) reaction; test: Antagonism to passive cutaneous anaphylaxis (P.C.A.) in rat; type: in vivo, rat (male Sprague-Dawley-JCL); details: for ED50: Rattus norvegicus
Experimental: (1) Preparation of antiserum
(a) Rat reaginic antiserum against egg albumin
One mg of egg albumin emulsified in 0.5 ml of B. pertussisdiphtheria mixed vaccine (Tanabe Seiyaku Company Ltd.) and 0.5 ml of Freund's incomplete adjuvant (Difco) was used as the antigen. The emulsion was given subcutaneously in a single dose of 1 ml divided equally (0.25 ml) to the four foot pads of male Sprague-Dawley JCL strain rats aged 6 weeks, each weighing 170-220 g. Blood samples were collected from the femoral artery 12 days after injection, and centifuged at 3000 r.p.m. at 4° C. for 15 minutes. The antisera thus obtained were stored at -20° C.
(2) antagonism to passive cutaneous anaphylaxis (P.C.A.) in rat
Ten male Sprague-Dawley-JCL strain rats, weighing 290-310 g, were used for each dose. The rat reaginic antiserum against egg albumin was used at a dilution 1:4. The animals were sensitized with 0.1 ml of the antiserum injected intracutaneously on the depilated backs of the rats. Fortyeight hours after the injection of the antiserum, 1 ml of mixture of egg albumin 5 mg and Evans' blue 5 mg in physiological saline 1 ml was injected intravenously. Thirty minutes after the injection of the antigen, animals were sacrificed and the skin was removed. To each sensitized area of the skin was added 10 ml of a 4:1 mixture of acetone and 2% solution of RBS-25 (Marumoto Industrial Co., Ltd.) to extract the dye and the mixture was allowed to stand for 16 hours, during of which the mixture was twice shaken for 30 minutes at 5th hour and 16th hour. It was further centrifuged at 2,000 r.p.m. for 15 minutes and the quantity of the dye in the supernatant solution was determined by colorimetry at […]. Each test compound was given orally 2 hours and intravenously 5 minutes before administration of the antigen. The inhibitory effect of each test compound was determined from the dye amounts measured in comparison with the control group and the treated group and the ED50 value was calculated according to Litchfield-Wilcoxon method.

anaphylactic asthma = test: Antagonism to anaphylactic asthma in guinea-pigs; type: in vivo, guinea-pig (male Hartley); details: for Inhibitory effect of anaphylactic asthma in guinea-pig: survival more than 2 hours after antigen spray
Acute toxicity in mouse = details: in vivo, 7 days
Experimental: as §1, §2, §3

[4] = iv, 5 min, i.v., 5 minutes before antigen
[5] = i.v., 4 mg/kg, 5 minutes before antigen
[6] = i.v., 16 mg/kg, 5 minutes before antigen
[7] = i.v., 64 mg/kg, 5 minutes before antigen
[8] = p.o., 32 mg/kg, 2 hours before antigen
[9] = p.o., 125 mg/kg, 2 hours before antigen
[10] = p.o., 500 mg/kg, 2 hours before antigen
[11] = iv, 5 min, i.v., 5 minutes before antigen, Litchfield-Wilcoxon

Row | SMILES | LD50 at 168 h (Acute toxicity in rat; po, female) | LD50 at 168 h (Acute toxicity in rat; po, male) | ED50 [1, 4] | ED50 ([1]; po, 2 hours before antigen) | Inhibitory effect of P.C.A. reaction in guinea-pig [1, 5] | Inhibitory effect of P.C.A. reaction in guinea-pig [1, 6] | Inhibitory effect of P.C.A. reaction in guinea-pig [1, 7] | Inhibitory effect of P.C.A. reaction in guinea-pig [1, 8] | Inhibitory effect of P.C.A. reaction in guinea-pig [1, 9] | Inhibitory effect of P.C.A. reaction in guinea-pig [1, 10] | Inhibitory effect of Bradykinin-induced bronchoconstruction in guinea-pig ([2]; 0.064 mg/kg i.v.) | Inhibitory effect of Bradykinin-induced bronchoconstruction in guinea-pig ([2]; 0.25 mg/kg i.v.) | Inhibitory effect of Bradykinin-induced bronchoconstruction in guinea-pig ([2]; 1 mg/kg i.v.) | Inhibitory effect of Bradykinin-induced bronchoconstruction in guinea-pig ([2]; 4 mg/kg i.v.) | ED50 [2] | ED50 [3, 11] | Inhibitory effect of P.C.A. reaction in rat [3, 5] | Inhibitory effect of P.C.A. reaction in rat [3, 6] | LD50 at 168 h (Acute toxicity in mouse; po, female) | LD50 at 168 h (Acute toxicity in mouse; po, male) | further results
1 | O=C(Cn1c(=O)sc2ccc(Cl)cc21)N1CCC(O)CC1 [Compound A, 3-(4-hydroxypiperidino)carbonylmethyl-5-chloro-2-benzothiazolinone] | > 8000 mg/kg | > 8000 mg/kg | 29.1 mg/kg | 202 mg/kg | 15.5% | 32.9% | 68.9% | 33.5% | 31.7% | 67.4% | 12% | 50% | 89% | 91% | 0.278 mg/kg | 56.6 mg/kg | 22.6% | 41.5% | > 8000 mg/kg | > 8000 mg/kg | LD50 at 168 h (Acute toxicity in rat; ip, female): 5800 mg/kg; LD50 at 168 h (Acute toxicity in rat; ip, male): 7110 mg/kg; LD50 at 168 h (Acute toxicity in rat; sc, female): > 8000 mg/kg; LD50 at 168 h (Acute toxicity in rat; sc, male): > 8000 mg/kg; ED50 ([3]; po, 2 hours before antigen, Litchfield-Wilcoxon): 348 mg/kg; Inhibitory effect of P.C.A. reaction in rat [3, 7]: 49.1%; Inhibitory effect of P.C.A. reaction in rat [3, 8]: 20.8%; Inhibitory effect of P.C.A. reaction in rat [3, 9]: 20.8%; Inhibitory effect of P.C.A. reaction in rat [3, 10]: 62.3%; Inhibitory effect of anaphylactic asthma in guinea-pig (anaphylactic asthma; 4 mg/kg i.v.): 0%; Inhibitory effect of anaphylactic asthma in guinea-pig (anaphylactic asthma; 16 mg/kg i.v.): 90%; Inhibitory effect of anaphylactic asthma in guinea-pig (anaphylactic asthma; 64 mg/kg i.v.): 100%; ED50 (anaphylactic asthma; Cavia porcellus, iv, 2 h, i.v., anaphylactic asthma, Litchfield-Wilcoxon, read-out: ED50 (dose required for 50% protection from death)): ~8.5 mg/kg; LD50 at 168 h (Acute toxicity in mouse; ip, female): > 8000 mg/kg; LD50 at 168 h (Acute toxicity in mouse; ip, male): > 8000 mg/kg; LD50 at 168 h (Acute toxicity in mouse; sc, female): > 8000 mg/kg; LD50 at 168 h (Acute toxicity in mouse; sc, male): > 8000 mg/kg
2 | O=C(Cn1c(=O)sc2ccc(Cl)cc21)N1CCN(CCO)CC1 [Compound D, 3-[4-(2-hydroxyethyl)-1-piperazinylcarbonylmethyl]-5-chloro-2-benzothiazolinone hydrochloride] | 3800 mg/kg |  | 46.8 mg/kg | 594 mg/kg | 7.4% | 19.4% | 60.6% | -8.2% | 6.1% | 43.4% | -14% | 27% | 44% | 94% | 0.813 mg/kg |  |  |  | 622 mg/kg | 564 mg/kg | Inhibitory effect of Bradykinin-induced bronchoconstruction in guinea-pig ([2]; 16 mg/kg i.v.): 99%
3 | O=C(O)c1cc(=O)c2c(OCC(O)COc3cccc4oc(C(=O)O)cc(=O)c34)cccc2o1 [Compound C, disodium chromoglycate] | > 11000 mg/kg | > 11000 mg/kg |  |  | 11.4% | 18.4% | -2.2% | -25.4% | 24.6% |  |  |  | 12% | 28% | > 16 mg/kg | 73.2 mg/kg | 24.1% | 55.6% | > 11000 mg/kg | > 11000 mg/kg | Inhibitory effect of Bradykinin-induced bronchoconstruction in guinea-pig ([2]; 16 mg/kg i.v.): 24%; Inhibitory effect of P.C.A. reaction in rat [3, 7]: 41.4%; Inhibitory effect of P.C.A. reaction in rat [3, 8]: -16.1%; Inhibitory effect of P.C.A. reaction in rat [3, 10]: 9.4%; ED50 (P.C.A. reaction in rat) ([3]; p.o., 2 hours before antigen, Litchfield-Wilcoxon): No effect; Inhibitory effect of anaphylactic asthma in guinea-pig (anaphylactic asthma; 4 mg/kg i.v.): 0%; Inhibitory effect of anaphylactic asthma in guinea-pig (anaphylactic asthma; 16 mg/kg i.v.): 0%; Inhibitory effect of anaphylactic asthma in guinea-pig (anaphylactic asthma; 64 mg/kg i.v.): 10%; ED50 (dose required for 50% protection from death) (anaphylactic asthma; i.v., anaphylactic asthma, Litchfield-Wilcoxon): No effect
